Where two headings read alike, the source gives them in different places.
Legend:
[1] = target: protein kinase C alpha (Homo sapiens, UniProt P17252); assay: PKC Enzyme assay, alpha isozyme; format: biochemical
Protocol: (§1) PKC enzymes=alpha, beta I, beta II, gamma, delta, epsilon, eta and zeta.
(§2) Assay components in a total volume of 250 μL are the following:
(§3) Vesicles consisting of 120 μg/mL phosphatidylserine (Avanti Polar Lipids) and sufficient diacylglycerol (Avanti Polar Lipids) to activate the enzyme to maximum activity in 20 mM HEPES buffer (Sigma, St. Louis, Mo.), pH 7.5, 940 μM calcium chloride (Sigma, St. Louis, Mo.) for assaying the alpha, beta I, beta II and gamma enzyme only, 1 mM EGTA for all the enzymes, 10 mM magnesium chloride (Sigma, St. Louis, Mo.) and 30 μM (gamma-32P) ATP (DuPont). For all the enzymes either histone type HL (Worthington) or myelin basic protein is used as substrate. The assay is started by addition of protein kinase C enzyme incubated at 30° C. for 10 minutes and stopped by adding 0.5 mL of cold trichloroacetic acid (Amresco) followed by 100 μL of 1 mg/mL bovine serum albumin (Sigma, St. Louis, Mo.). The precipitate is collected by vacuum filtration on glass fiber filters employing a TOMTEC™ filtration system and quantified by counting in a beta scintillation counter.

[2] = target: protein kinase C beta-1 (Homo sapiens, UniProt P05771); assay: PKC Enzyme assay, beta I isozyme; format: biochemical
Sequence of protein kinase C beta-1 (P05771 whole entry): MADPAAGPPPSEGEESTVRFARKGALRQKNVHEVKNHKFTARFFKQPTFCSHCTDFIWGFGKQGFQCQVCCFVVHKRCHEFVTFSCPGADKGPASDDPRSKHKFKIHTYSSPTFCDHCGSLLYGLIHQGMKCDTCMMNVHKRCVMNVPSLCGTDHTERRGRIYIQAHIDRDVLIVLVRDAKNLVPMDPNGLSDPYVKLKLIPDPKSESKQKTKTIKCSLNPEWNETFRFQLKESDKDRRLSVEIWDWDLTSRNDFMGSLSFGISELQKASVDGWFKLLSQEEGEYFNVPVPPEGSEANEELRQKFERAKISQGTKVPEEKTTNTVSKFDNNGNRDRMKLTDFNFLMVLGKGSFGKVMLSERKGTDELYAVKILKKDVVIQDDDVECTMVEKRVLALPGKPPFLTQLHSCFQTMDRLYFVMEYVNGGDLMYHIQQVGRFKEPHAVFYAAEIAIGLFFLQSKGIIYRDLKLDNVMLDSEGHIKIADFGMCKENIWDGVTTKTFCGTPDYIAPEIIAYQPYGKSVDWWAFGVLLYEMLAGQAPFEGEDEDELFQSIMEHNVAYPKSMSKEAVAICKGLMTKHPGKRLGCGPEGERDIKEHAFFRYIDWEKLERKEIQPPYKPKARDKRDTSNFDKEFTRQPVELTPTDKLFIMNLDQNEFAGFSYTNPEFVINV
Protocol: as §1, §2, §3

[3] = target: protein kinase C beta-2 (Homo sapiens, UniProt P05771); assay: PKC Enzyme assay, beta II isozyme; format: biochemical
Sequence of protein kinase C beta-2 (P05771 1-673 isoform P05771-2): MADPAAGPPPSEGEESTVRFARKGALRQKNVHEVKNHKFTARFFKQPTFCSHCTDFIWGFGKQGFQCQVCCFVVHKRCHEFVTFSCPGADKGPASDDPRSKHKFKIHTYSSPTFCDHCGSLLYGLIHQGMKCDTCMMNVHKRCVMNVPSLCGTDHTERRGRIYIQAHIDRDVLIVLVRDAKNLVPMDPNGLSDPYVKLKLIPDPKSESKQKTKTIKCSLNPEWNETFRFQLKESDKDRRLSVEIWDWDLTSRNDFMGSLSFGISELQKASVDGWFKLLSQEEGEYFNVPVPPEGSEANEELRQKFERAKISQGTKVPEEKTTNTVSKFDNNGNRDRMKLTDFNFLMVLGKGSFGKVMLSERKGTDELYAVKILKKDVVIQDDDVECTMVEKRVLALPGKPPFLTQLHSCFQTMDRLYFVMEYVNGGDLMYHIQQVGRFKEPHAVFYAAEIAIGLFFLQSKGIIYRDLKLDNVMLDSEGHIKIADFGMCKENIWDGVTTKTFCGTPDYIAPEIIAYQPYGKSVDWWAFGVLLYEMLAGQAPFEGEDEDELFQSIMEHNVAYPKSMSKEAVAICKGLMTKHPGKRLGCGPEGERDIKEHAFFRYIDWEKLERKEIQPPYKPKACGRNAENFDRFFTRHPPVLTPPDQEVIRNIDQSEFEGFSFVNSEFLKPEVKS
Protocol: as §1, §2, §3

[4] = target: protein kinase C gamma (Homo sapiens, UniProt P05129); assay: PKC Enzyme assay, gamma isozyme; format: biochemical
Protocol: as §1, §2, §3

[5] = target: protein kinase C delta (Homo sapiens, UniProt Q05655); assay: biochemical
Sequence of protein kinase C delta (Q05655 whole entry): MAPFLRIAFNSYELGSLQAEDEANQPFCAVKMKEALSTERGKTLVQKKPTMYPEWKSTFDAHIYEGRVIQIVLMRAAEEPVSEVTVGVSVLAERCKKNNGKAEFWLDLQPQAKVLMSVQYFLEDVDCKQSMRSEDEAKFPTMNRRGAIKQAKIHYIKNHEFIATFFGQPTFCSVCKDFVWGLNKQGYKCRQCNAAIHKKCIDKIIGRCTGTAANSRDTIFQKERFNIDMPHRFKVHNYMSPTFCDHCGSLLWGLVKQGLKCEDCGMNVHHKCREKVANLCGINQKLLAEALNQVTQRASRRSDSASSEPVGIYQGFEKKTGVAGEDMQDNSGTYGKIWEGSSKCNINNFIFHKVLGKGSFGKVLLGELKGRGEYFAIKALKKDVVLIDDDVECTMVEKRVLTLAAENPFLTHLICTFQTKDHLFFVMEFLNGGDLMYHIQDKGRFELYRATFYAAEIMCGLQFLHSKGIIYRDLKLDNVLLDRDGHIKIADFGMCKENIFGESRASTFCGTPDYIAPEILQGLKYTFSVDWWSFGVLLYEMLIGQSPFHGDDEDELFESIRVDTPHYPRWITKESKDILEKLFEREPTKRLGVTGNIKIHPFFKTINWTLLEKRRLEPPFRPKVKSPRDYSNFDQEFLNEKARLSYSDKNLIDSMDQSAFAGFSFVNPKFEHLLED
Protocol: as §1, §2, §3

[6] = target: T1, protein kinase C epsilon (Homo sapiens, UniProt Q02156); assay: PKC Enzyme assay, epsilon isozyme; format: biochemical
T1 sequence (Q02156 1-737): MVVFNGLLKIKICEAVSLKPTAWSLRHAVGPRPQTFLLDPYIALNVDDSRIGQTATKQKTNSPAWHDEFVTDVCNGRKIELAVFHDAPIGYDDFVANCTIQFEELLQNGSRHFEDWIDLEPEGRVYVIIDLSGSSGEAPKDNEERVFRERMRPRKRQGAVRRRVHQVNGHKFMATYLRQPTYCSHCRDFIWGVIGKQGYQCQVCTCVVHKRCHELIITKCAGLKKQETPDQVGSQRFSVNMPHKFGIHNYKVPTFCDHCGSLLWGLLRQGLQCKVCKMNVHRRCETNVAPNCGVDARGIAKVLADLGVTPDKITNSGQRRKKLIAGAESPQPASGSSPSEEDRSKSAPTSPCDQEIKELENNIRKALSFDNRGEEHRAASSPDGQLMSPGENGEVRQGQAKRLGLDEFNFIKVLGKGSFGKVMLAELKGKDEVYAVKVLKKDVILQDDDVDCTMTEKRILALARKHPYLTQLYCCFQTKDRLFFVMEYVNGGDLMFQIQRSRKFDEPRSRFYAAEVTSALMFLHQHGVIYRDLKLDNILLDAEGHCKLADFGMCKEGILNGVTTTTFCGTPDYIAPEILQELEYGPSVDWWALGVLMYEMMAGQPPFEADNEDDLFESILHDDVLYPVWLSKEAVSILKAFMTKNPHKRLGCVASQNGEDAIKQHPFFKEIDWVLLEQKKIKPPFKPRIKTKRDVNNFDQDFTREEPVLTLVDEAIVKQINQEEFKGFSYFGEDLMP
Protocol: as §1, §2, §3

[7] = target: T2, protein kinase C zeta (Homo sapiens, UniProt Q05513); assay: PKC Enzyme assay, zeta isozyme; format: biochemical
T2 sequence (Q05513 1-592): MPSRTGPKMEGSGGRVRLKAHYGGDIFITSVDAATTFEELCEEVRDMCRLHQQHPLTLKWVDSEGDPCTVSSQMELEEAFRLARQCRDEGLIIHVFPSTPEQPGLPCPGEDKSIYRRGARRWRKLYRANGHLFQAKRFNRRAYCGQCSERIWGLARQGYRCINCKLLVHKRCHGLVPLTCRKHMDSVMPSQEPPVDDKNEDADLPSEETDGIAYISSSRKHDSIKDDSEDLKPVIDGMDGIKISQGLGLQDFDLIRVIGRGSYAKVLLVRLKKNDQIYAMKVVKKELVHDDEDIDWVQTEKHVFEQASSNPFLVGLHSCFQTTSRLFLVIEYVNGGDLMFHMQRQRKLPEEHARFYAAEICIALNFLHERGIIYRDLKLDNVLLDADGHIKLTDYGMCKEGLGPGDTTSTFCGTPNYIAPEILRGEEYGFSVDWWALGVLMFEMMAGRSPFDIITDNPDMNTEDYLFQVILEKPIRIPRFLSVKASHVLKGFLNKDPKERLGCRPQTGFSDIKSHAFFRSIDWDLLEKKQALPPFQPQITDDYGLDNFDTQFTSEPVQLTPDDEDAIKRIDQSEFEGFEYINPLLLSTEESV
Protocol: as §1, §2, §3

[8] = target: protein kinase C eta (Homo sapiens, UniProt P24723); assay: PKC Enzyme assay, eta isozyme; format: biochemical
Sequence of protein kinase C eta (P24723 whole entry): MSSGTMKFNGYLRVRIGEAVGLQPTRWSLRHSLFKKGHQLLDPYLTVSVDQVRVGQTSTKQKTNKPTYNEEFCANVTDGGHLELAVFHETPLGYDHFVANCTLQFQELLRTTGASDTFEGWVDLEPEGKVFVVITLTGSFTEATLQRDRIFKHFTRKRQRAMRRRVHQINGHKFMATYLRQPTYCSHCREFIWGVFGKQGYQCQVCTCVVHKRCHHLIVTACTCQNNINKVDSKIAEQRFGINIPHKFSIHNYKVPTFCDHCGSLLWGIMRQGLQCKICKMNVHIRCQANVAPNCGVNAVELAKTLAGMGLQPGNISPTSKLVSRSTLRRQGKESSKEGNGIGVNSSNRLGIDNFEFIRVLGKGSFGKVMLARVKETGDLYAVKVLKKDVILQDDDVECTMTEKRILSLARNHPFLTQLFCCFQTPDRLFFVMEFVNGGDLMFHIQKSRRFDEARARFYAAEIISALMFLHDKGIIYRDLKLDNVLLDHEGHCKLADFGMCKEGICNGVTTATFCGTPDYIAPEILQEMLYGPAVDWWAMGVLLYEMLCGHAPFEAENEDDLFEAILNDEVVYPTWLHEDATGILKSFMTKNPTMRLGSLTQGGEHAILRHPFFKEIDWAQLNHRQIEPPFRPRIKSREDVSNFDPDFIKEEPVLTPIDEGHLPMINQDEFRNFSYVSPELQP
Protocol: as §1, §2, §3

[9] = PKC alpha, 30 μM ATP, 30° C., 10 minutes, read-out: IC50 α
[10] = PKC beta-1, 30 μM ATP, 30° C., 10 minutes, read-out: IC50 β1
[11] = PKC beta-2, 30 μM ATP, 30° C., 10 minutes, read-out: IC50 β2
[12] = PKC gamma, 30 μM ATP, 30° C., 10 minutes, read-out: IC50 γ
[13] = PKC delta, 30 μM ATP, 30° C., 10 minutes, read-out: IC50 δ
[14] = PKC epsilon, 30 μM ATP, 30° C., 10 minutes, read-out: IC50 ε
[15] = PKC zeta, 30 μM ATP, 30° C., 10 minutes, read-out: IC50 ζ
[16] = PKC eta, 30 μM ATP, 30° C., 10 minutes, read-out: IC50 η

Compound | IC50 [1, 9] | IC50 [2, 10] | IC50 [3, 11] | IC50 [4, 12] | IC50 [5, 13] | IC50 [6, 14] | IC50 [7, 15] | IC50 [8, 16] | IC50 [1] | IC50 [2] | IC50 [3] | IC50 [4] | IC50 [5] | IC50 [6] | IC50 [7] | IC50 [8]
Cn1cc(C2=C(c3cn(C4CCN(C(=N)N)CC4)c4ccccc34)C(=O)NC2=O)c2ccccc21 [Example 44, 3-[1-(1-carboxamidine-piperidin-4-yl)-indol-3-yl)-4-(1-methyl-indol-3-yl)-1-pyrrole-2,5-dione] | 42 nM | 5 nM | 5 nM | 82 nM | 100 nM | 360 nM | 4800 nM | 5 nM | – | – | – | – | – | – | – | –
Cn1cc(C2=C(c3cn(CCO[C@@H]4C[C@H](O)[C@@H](CN=[N+]=[N-])O4)c4ccccc34)C(=O)NC2=O)c2ccccc21 [Example 58] | 4900 nM | 240 nM | 270 nM | 38000 nM | 4500 nM | 12000 nM | 46000 nM | 2500 nM | – | – | – | – | – | – | – | –
Cn1cc(C2=C(c3cn(C4CCN(C(=NC(=O)OC(C)(C)C)NC(=O)OC(C)(C)C)CC4)c4ccccc34)C(=O)NC2=O)c2ccccc21 [Example 5, [t-Butoxycarbonylimino-(4-{3-[4-(1-methyl-1H-indol-3-yl)-2,5-dioxo-2,5-dihydro-1H-pyrrole-3-yl]-indol-1-yl}-piperidin-1-yl)-methyl]-carbamic acid t-butyl ester] | 370 nM | 44 nM | 29 nM | 500 nM | 470 nM | 2600 nM | 42000 nM | 150 nM | – | – | – | – | – | – | – | –
Cn1cc(C2=C(c3cn(CCOC4O[C@H](CO)[C@@H](O)[C@@H](N)[C@H]4O)c4ccccc34)C(=O)NC2=O)c2ccccc21 (stereo partly drawn) [Example 67] | 6600 nM | 300 nM | 200 nM | 8200 nM | 4100 nM | 38000 nM | 47000 nM | 2600 nM | – | – | – | – | – | – | – | –
CN1CCC(n2cc(C3=C(c4cn(C)c5ccccc45)C(=O)NC3=O)c3ccccc32)CC1 [Example 42, 3-[1-(1-Methyl-piperidin-4-yl)-indol-3-yl]-4-(1-methyl-indol-3-yl)-1H-pyrrole-2,5-dione] | 400 nM | 20 nM | 10 nM | 500 nM | 400 nM | 400 nM | 4000 nM | 50 nM | – | – | – | – | – | – | – | –
CN1CCC(Cn2cc(C3=C(c4cn(C)c5ccccc45)C(=O)NC3=O)c3ccccc32)CC1 [Example 68, 3-(1-Methyl-indol-3-yl)-4-[1-(1-methyl-piperidin-4-ylmethylene)-indol-3-yl]-1H-pyrrole-2,5-dione] | 1400 nM | 47 nM | 33 nM | 2400 nM | 1900 nM | 4600 nM | 9800 nM | 110 nM | – | – | – | – | – | – | – | –
O=C1NC(=O)C(c2cn(Cc3ccccc3)c3ccccc23)=C1c1c[nH]c2ccccc12 [Example 14] | 13500 nM | 1150 nM | 1140 nM | 25000 nM | 8800 nM | 30000 nM | 34000 nM | 4500 nM | – | – | – | – | – | – | – | –
CC(C)(C)OC(=O)N1CCC(n2cc(C3=C(c4c[nH]c5ccccc45)C(=O)NC3=O)c3ccccc32)CC1 [Example 7] | 3300 nM | 230 nM | 100 nM | 2800 nM | 4100 nM | 6300 nM | 31000 nM | 6200 nM | – | – | – | – | – | – | – | –
CC(=O)N1CCC(n2cc(C3=C(c4cn(C)c5ccccc45)C(=O)NC3=O)c3ccccc32)CC1 [Example 37, 3-(1-(1-Acetyl-piperidin-4-yl]-indol-3-yl)-4-(1-methyl-indol-3-yl)-pyrrole-2,5-dione] | 300 nM | 9 nM | 20 nM | 1000 nM | 400 nM | 400 nM | 20000 nM | 100 nM | – | – | – | – | – | – | – | –
CN(C)CCCn1cc(C2=C(c3c[nH]c4ccccc34)C(=O)NC2=O)c2ccccc21 [Example 10] | – | – | – | – | – | – | – | – | 660 nM | 50 nM | 50 nM | 1040 nM | 920 nM | 930 nM | 23000 nM | 90 nM
CC(=O)OCC1(COC(C)=O)CCn2c(c(C3=C(c4cn(C)c5ccccc45)C(=O)NC3=O)c3ccccc32)C1 [Example 1, 3-[8,8-bis(acetoxymethylene)-6,7,8,9-tetrahydropyrido[1,2-a]indol-10-yl]-4-(1-methyl-3-indolyl)-1H-pyrrole-2,5-dione] | 9800 nM | 360 nM | 300 nM | 38000 nM | 47000 nM | 150000 nM | 50000 nM | 121000 nM | – | – | – | – | – | – | – | –
Cn1cc(C2=C(c3cn(C4CCN(c5ccccn5)CC4)c4ccccc34)C(=O)NC2=O)c2ccccc21 [Example 48] | 2000 nM | 50 nM | 40 nM | 5000 nM | 2000 nM | 2000 nM | > 100000 nM | 2000 nM | – | – | – | – | – | – | – | –
